Assay results taken from US20220325242A1, “IDH2 INHIBITION FOR PRODUCING T-CELLS AND B-CELLS WITH A MEMORY PHENOTYPE” (Universite de Lausanne, priority 2019, published 2022).

How the values were obtained:
[1] = test system: OT1 CD8+ T cells; test: Extracellular flux analyses (XF-96 Seahorse) of OT1 CD8+ T cells; assay type: cell-based, mouse; details: day 7, compared to DMSO
Protocol: Example 2. In vitro culture of splenocytes comprising CD8+ T-cells. OT1 splenocytes (as described in Example 1) were cultured for 3 days at a concentration of 10^6 cells per mL in RPMI medium (Gibco 61870-01) supplemented with 10% FCS, (Gibco 10270-106), 1% Penicillin/Streptomycin (P/S; Gibco 15070-063), 0.1% 13-mercaptoethanol, 1% HEPES (Gibco 15630-080), 1× Non-essential amino acids (Gibco 11140-035), 1% L-glutamine (Gibco 25030-081), 1 mM Sodium Pyruvate (Gibco 11360-039), 100 U/m1 hIL-2 (Glaxo-IMB) and 1 μg/ml ovalbumin N4 peptide (SIINFEKL). To evaluate the effects of IDH2 inhibition on T-cell differentiation, 5 μM of a small molecule IDH2 inhibitor (AG221 or AGI6780) or a DMSO solvent control was added during this 3-day culture period. At day 3, a fraction of the splenocytes was collected and the remaining cells were cultured for 4 additional days with 100 U/ml hIL-2 and 10 ng/ml hIL-7 (Peprotech 200-07) supplementation after washing out the inhibitors and the ovalbumine N4 peptide (FIG. 1). At day 3 and day 7, the activation and differentiation state of CD8+ T-cells was determined by gene expression analysis, flow cytometry and extracellular metabolic flux analyses (see Example 3).
Real-time analysis of CD8^+ T cell oxygen consumption rate (OCR) was measured with an XF-96 Extracellular Flux Analyzer (Seahorse Bioscience) at day 7 of in vitro culture (FIG. 7). Measurements were performed while successively adding different drugs to the culture without any washing steps in between. Specifically, the measurements were performed under basal conditions, after addition of 1.25 μM oligomycin, a complex V inhibitor that blocks mitochondrial ATP synthase, after addition of 1 μM protonophore FCCP (fluoro-carbonyl cyanide phenylhydrazone) to uncouple ATP synthesis from oxygen consumption by the electron transport chain, after addition of 50 μM etomoxir to inhibit CPT1alpha, and thus fatty acid oxidation, and after addition of 100 nM rotenone and 1 μM antimycin A to inhibit the electron transport chain.
The basal OCR is the OCR measured in the absence of drugs. Addition of oligomycin allows to calculate the ATP-linked respiration by subtracting the oligomycin OCR from basal OCR. FCCP enables the electron transport chain (ETC) to reach its maximal rate, allowing to determine the cellular maximal respiratory capacity. Finally, rotenone and antimycin A inhibit the ETC which indicates the non-mitochondrial respiration. The spare respiratory capacity (SRC) is defined as the difference between basal OCR and maximal OCR obtained after FCCP addition.
In addition, the extracellular acidification rate (ECAR), which is an indicator for […], was measured using the same device under basal conditions. This allowed further calculating the OCR/ECAR ratio as indicator of basal mitochondrial activity.

[2] = test system: B16-OVA melanoma; test: Tumor growth of B16-OVA tumors after adoptive transfer of inhibitor-treated OT1 T-cells; assay type: in vivo, mouse; details: mice adoptively transferred with T-cells treated in vitro
Protocol: Example 5. In vivo tumor model to characterize the phenotype and efficacy of cultured CD8+ T-cells upon adoptive cell transfer. An in vivo tumor model was used to determine the efficacy of in vitro cultured CD8+ T-cells treated with an IDH2 inhibitor in eliminating cancer cells (FIG. 10). B16-OVA melanoma cells (see Example 1) were cultured in DMEM (GIBCO) with 10% FCS and 1% P/S before their subcutaneous injection into the mouse flank. Each mouse received 100′000 cells in a volume of 200 μl of PBS. 6 days after B16-OVA cell injection, tumors were measured, mice were randomized and lymphodepleted by irradiation (5 Gray). 7 days after B16-Ova cell injection, mice were adoptively transferred with activated CD45.1^+ OT-1 splenocytes. […] Live splenocytes, almost exclusively consisting of CD8+ T-cells (about 98%), were counted with Trypan blue stain 0.4%. […]
Following the adoptive cell transfer (ACT), mice received a vaccination of CpG (50 μg/mouse) and N4 Ova peptide (10 μg/mouse) diluted in PBS to obtain a total volume of 100 μl/mouse, injected subcutaneously at the tail base to further stimulate the transferred cells. […] Tumors were measured every 2 days with a digital caliper and the tumor volume was calculated according to the formula: V=π×[d2×D]/6, wherein d is the smallest tumor axis and D is the largest tumor axis.

[3] = test system: histone H3 (H3K4-3Me, H3K27-Ac) in OT1 T-cells; test: Western blot of histone H3 modifications in OT1 T-cells; assay type: cell-based, mouse; details: day 7, 5 μM day 0-3, western blot, versus DMSO
Protocol: Methods: OT1 splenocytes were activated and cultured with 5 μM AG221 or DMSO as described in Example 2. After 3 days, the cells were washed and the IDH2 inhibitor was washed out as well. The cells were then cultured for an additional 4 days in the absence of AG221. At day 7, the cells were collected and washed once with PBS. 50′000 cells were collected for ATAC-seq while the remaining cell pellet was lysed in extraction buffer (20 mM Tris HCl, 150 mM NaCl, 1% Triton X-100, 10% glycerol, 5 mM EDTA) supplemented with Complete Mini protease inhibitor (Roche) for wester blotting.
For western blotting, an equal amount of protein (as measure by the BCA protein assay kit, Thermo Scientific) was size-separated on a 12.5% polyacrylamide gel and transferred to a 0.2 μm nitrocellulose membrane (Bio-Rad). The following antibodies were used: β-Actin (AC-74) from Sigma Aldrich, H3K4-trimethyl (C42D8) and H3K27-acetyl (D5E4) from Cell Signaling, and appropriate HRP-labelled secondary antibodies (Santa Cruz). The signal was visualized with ECLTM Select Western Blotting Detection Reagent from Sigma Aldrich or SuperSignal West Femto Maximum Sensitivity Substrate from Thermo Scientific and acquired by the Fusion FX from Vilber.

[4] = test system: OT2 CD4 T cells; test: CD62L flow cytometry of OT2 CD4 T cells activated by co-culture with dendritic cells; assay type: cell-based, mouse; details: 5 μM for 7 days, day 7, versus DMSO
Excerpt: A new experiment has been performed on mouse T cells in order to further strengthen our claim that IDH2 inhibition also promotes memory marker expression in CD4 T cells. As indicated in the experimental scheme (FIG. 17A), we activated CD4 T cells from OT2 mice by co-culture with dendritic cells. OT2 mice are transgenic for an αβTCR recognizing specifically a chicken ovalbumine peptide 323-339 associated with the mouse MHC class II molecule I-A^b. We activated OT2 CD4 T cells by co-culture with dendritic cells loaded with […] of the ovalbumine peptide in the presence of 100 IU/ml recombinant human IL2 in the presence of 5 μM AG221 or DMSO control. After 4 days, cells were collected, washed and split, and brought back in culture with 100 IU/ml rhIL2 and 5 μM AG221 or DMSO control.

For CC(C)(O)CNc1nc(Nc2ccnc(C(F)(F)F)c2)nc(-c2cccc(C(F)(F)F)n2)n1 [AG221, 2-methyl-1-[[4-[6-(trifluoromethyl)pyridin-2-yl]-6-[[2-(trifluoromethyl)pyridin-4-yl]amino]-1,3,5-triazin-2-yl]amino]propan-2-ol], the OCR/ECAR ratio [1] was “unchanged”, the “basal oxygen consumption rate (OCR)” value [1] was “significantly increased” and the “extracellular acidification rates (ECAR)” value [1] was “unchanged”. The maximal respiratory capacity [1] was “significantly increased”, the “spare respiratory capacity (SRC)” value [1] was “significantly increased” and the “tumor burden, in particular tumor growth” value [2] was “significantly reduced”. For the same compound, the “acetylation of lysine residue 27 of histone H3” value [3] was “increased”, the “trimethylation of lysine residue 4 of histone H3” value [3] was “increased” and the “CD62L-positive population of CD4 T cells” value [4] was “strong increase”.
